Tested on: MV-4-11 cells
Assay: Gene expression microarray analysis (Affymetrix PrimeView) and GSEA
Type: cell-based, human
Design: RFU PODN (11730768_x_at) / Fold change /veh PODN (11730768_x_at) / RFU LINC00158 (11744669_a_at) / Fold change /veh LINC00158 (11744669_a_at) / RFU DUSP10 (11751237_a_at) / Fold change /veh DUSP10 (11751237_a_at) / RFU ID3 (11757404_x_at) / Fold change /veh ID3 (11757404_x_at) / RFU PLEKHG5 (11737974_s_at) / Fold change /veh PLEKHG5 (11737974_s_at) / RFU LRRC4B (11730491_at) / Fold change /veh LRRC4B (11730491_at) / RFU GIMAP4 (11747438_a_at) / Fold change /veh GIMAP4 (11747438_a_at) / RFU KRT8 (11758183_x_at) / Fold change /veh KRT8 (11758183_x_at) / RFU CNN1 (11734310_a_at) / Fold change /veh CNN1 (11734310_a_at) / RFU VPS37D (11726825_at) / Fold change /veh VPS37D (11726825_at) / RFU C10orf10 (11716522_x_at) / Fold change /veh C10orf10 (11716522_x_at) / RFU KIR2DL2 /// KIR2DL4 /// KIR2DL5A /// KIR2DL5B /// KIR2DS1 /// KIR2DS2 /// KIR2DS3 /// KIR2DS4 /// KIR3DL3 /// KIR3DL3 /// KIR3DS1 (11738374_at) / Fold change /veh KIR2DL2 /// KIR2DL4 /// KIR2DL5A /// KIR2DL5B /// KIR2DS1 /// KIR2DS2 /// KIR2DS3 /// KIR2DS4 /// KIR3DL3 /// KIR3DL3 /// KIR3DS1 (11738374_at) / RFU C1QL1 (11718748_at) / Fold change /veh C1QL1 (11718748_at) / RFU TMPRSS4 (11747572_a_at) / Fold change /veh TMPRSS4 (11747572_a_at) / RFU HAMP (11756126_x_at) / Fold change /veh HAMP (11756126_x_at) / RFU RNFT2 (11725882_a_at) / Fold change /veh RNFT2 (11725882_a_at) / RFU NR4A2 (11747474_a_at) / Fold change /veh NR4A2 (11747474_a_at) / RFU ABCC12 (11746883_a_at) / Fold change /veh ABCC12 (11746883_a_at) / RFU TMEM136 (11760407_x_at) / Fold change /veh TMEM136 (11760407_x_at) / RFU CLDN22 /// WWC2 (11732394_at) / Fold change /veh CLDN22 /// WWC2 (11732394_at) / RFU HLA-DPB1 (11760878_x_at) / Fold change /veh HLA-DPB1 (11760878_x_at) / RFU SPINT1 (11716480_a_at) / Fold change /veh SPINT1 (11716480_a_at) / RFU GAP43 (11754022_s_at) / Fold change /veh GAP43 (11754022_s_at) / RFU A4GNT (11735810_at) / Fold change /veh A4GNT (11735810_at) / RFU PRB3 (11715151_x_at) / Fold change /veh PRB3 (11715151_x_at) / RFU TUBB4B (11761932_at) / Fold change /veh TUBB4B (11761932_at) / RFU CAPN14 (11732068_a_at) / Fold change /veh CAPN14 (11732068_a_at) / RFU TMCC2 (11721928_a_at) / Fold change /veh TMCC2 (11721928_a_at) / RFU IRGQ (11745062_a_at) / Fold change /veh IRGQ (11745062_a_at) / RFU FAM174B (11720279_a_at) / Fold change /veh FAM174B (11720279_a_at) / RFU TMPRSS4 (11748680_a_at) / Fold change /veh TMPRSS4 (11748680_a_at) / RFU FAM212B (11763350_a_at) / Fold change /veh FAM212B (11763350_a_at) / RFU PLEKHG5 (11743358_a_at) / Fold change /veh PLEKHG5 (11743358_a_at) / RFU ZSCAN30 (11745921_a_at) / Fold change /veh ZSCAN30 (11745921_a_at) / RFU CMKLR1 (11741424_a_at) / Fold change /veh CMKLR1 (11741424_a_at) / RFU LOC101060620 /// MAPK8IP1 (11723275_at) / Fold change /veh LOC101060620 /// MAPK8IP1 (11723275_at) / RFU SPTSSB (11747773_x_at) / Fold change /veh SPTSSB (11747773_x_at) / RFU PRSS12 (11739890_at) / Fold change /veh PRSS12 (11739890_at) / RFU BIN1 (11741810_x_at) / Fold change /veh BIN1 (11741810_x_at) / RFU WNT11 (11732464_a_at) / Fold change /veh WNT11 (11732464_a_at) / RFU C10orf10 (11716521_a_at) / Fold change /veh C10orf10 (11716521_a_at) / RFU C5orf56 (11738089_at) / Fold change /veh C5orf56 (11738089_at) / RFU CYB561 (11721691_x_at) / Fold change /veh CYB561 (11721691_x_at) / RFU ANKRD19P (11752326_a_at) / Fold change /veh ANKRD19P (11752326_a_at) / RFU OR2T12 /// OR2T33 /// OR2T8 (11738714_s_at) / Fold change /veh OR2T12 /// OR2T33 /// OR2T8 (11738714_s_at) / RFU VCAN (11748164_a_at) / Fold change /veh VCAN (11748164_a_at) / RFU JSRP1 (11732532_at) / Fold change /veh JSRP1 (11732532_at) / RFU KRTAP10-11 (11738290_x_at) / Fold change /veh KRTAP10-11 (11738290_x_at) / RFU MYO3A (11730013_a_at) / Fold change /veh MYO3A (11730013_a_at) / RFU EBF3 (11725865_a_at) / Fold change /veh EBF3 (11725865_a_at) / RFU CAMK2N1 (11719241_x_at) / Fold change /veh CAMK2N1 (11719241_x_at) / RFU C5orf56 (11738088_a_at) / Fold change /veh C5orf56 (11738088_a_at) / RFU OLFML3 (11715873_a_at) / Fold change /veh OLFML3 (11715873_a_at) / RFU LOC100653217 /// NTM (11731650_a_at) / Fold change /veh LOC100653217 /// NTM (11731650_a_at) / RFU MAPK11 (11762145_a_at) / Fold change /veh MAPK11 (11762145_a_at) / RFU FIZ1 (11724087_x_at) / Fold change /veh FIZ1 (11724087_x_at) / RFU OASL (11726364_x_at) / Fold change /veh OASL (11726364_x_at) / RFU SOX15 (11748057_x_at) / Fold change /veh SOX15 (11748057_x_at) / RFU CD79A (11719716_a_at) / Fold change /veh CD79A (11719716_a_at) / RFU HIST1H1D (11736915_at) / Fold change /veh HIST1H1D (11736915_at) / RFU CASKIN2 (11723855_a_at) / Fold change /veh CASKIN2 (11723855_a_at) / RFU LOC730098 (11760151_x_at) / Fold change /veh LOC730098 (11760151_x_at) / RFU OR4N2 (11742367_at) / Fold change /veh OR4N2 (11742367_at) / RFU PRRT2 (11749266_a_at) / Fold change /veh PRRT2 (11749266_a_at) / RFU SNX32 (11753110_a_at) / Fold change /veh SNX32 (11753110_a_at) / RFU CDHR5 (11726645_a_at) / Fold change /veh CDHR5 (11726645_a_at) / RFU RCAN1 (11760418_a_at) / Fold change /veh RCAN1 (11760418_a_at) / RFU FAM167A (11723789_a_at) / Fold change /veh FAM167A (11723789_a_at) / RFU FAM26E (11764081_at) / Fold change /veh FAM26E (11764081_at) / RFU ISYNA1 (11749810_s_at) / Fold change /veh ISYNA1 (11749810_s_at) / RFU ACY1 (11761880_at) / Fold change /veh ACY1 (11761880_at) / RFU 11764098_at / Fold change /veh 11764098_at / RFU SAMD14 (11745864_x_at) / Fold change /veh SAMD14 (11745864_x_at) / RFU NPB (11741838_a_at) / Fold change /veh NPB (11741838_a_at) / RFU TMPRSS6 (11731388_a_at) / Fold change /veh TMPRSS6 (11731388_a_at) / RFU KRTAP10-2 (11738614_at) / Fold change /veh KRTAP10-2 (11738614_at) / RFU ARHGAP8 /// PRR5-ARHGAP8 (11727945_x_at) / Fold change /veh ARHGAP8 /// PRR5-ARHGAP8 (11727945_x_at) / RFU KRTAP5-7 /// NADSYN1 (11734609_at) / Fold change /veh KRTAP5-7 /// NADSYN1 (11734609_at) / RFU RASL12 (11751679_a_at) / Fold change /veh RASL12 (11751679_a_at) / RFU CDKN2B (11736163_a_at) / Fold change /veh CDKN2B (11736163_a_at) / RFU PRF1 (11729649_at) / Fold change /veh PRF1 (11729649_at) / RFU, ZNF638 /// ZNF638-IT1 / Fold change vs veh, ZNF638 /// ZNF638-IT1 / RFU, PANK3 / Fold change vs veh, PANK3 / RFU, SH3YL1 / Fold change vs veh, SH3YL1 / RFU, ZEB2 / Fold change vs veh, ZEB2 / RFU, NRIP1 / Fold change vs veh, NRIP1 / RFU, PTTG1IP / Fold change vs veh, PTTG1IP / RFU, CAPN2 / Fold change vs veh, CAPN2 / RFU, MED14 / Fold change vs veh, MED14 / RFU, SNORA58 / Fold change vs veh, SNORA58 / RFU, C1orf63 / Fold change vs veh, C1orf63 / RFU, LRRFIP1 / Fold change vs veh, LRRFIP1 / RFU, NDUFAF7 / Fold change vs veh, NDUFAF7 / RFU, SLC12A2 / Fold change vs veh, SLC12A2 / RFU, IBTK / Fold change vs veh, IBTK / RFU, ESF1 / Fold change vs veh, ESF1 / Fold change vs veh, TMEM50B / RFU, TAOK1 / Fold change vs veh, TAOK1 / RFU, ACBD3 / Fold change vs veh, ACBD3 / RFU, TMA16 / Fold change vs veh, TMA16 / RFU, RWDD3 / Fold change vs veh, RWDD3 / RFU, BCAT1 / Fold change vs veh, BCAT1 / RFU, EDEM3 / Fold change vs veh, EDEM3 / RFU, TMEM33 / Fold change vs veh, TMEM33 / RFU, WDR75 / Fold change vs veh, WDR75 / RFU, AHCTF1 / Fold change vs veh, AHCTF1 / RFU, TFRC / Fold change vs veh, TFRC / RFU, ZDHHC17 / Fold change vs veh, ZDHHC17 / RFU, NOM1 / Fold change vs veh, NOM1 / RFU, ARL8B / Fold change vs veh, ARL8B / RFU, ZBTB11 / Fold change vs veh, ZBTB11 / RFU, TAMM41 / Fold change vs veh, TAMM41 / RFU, KIAA1704 /// LOC100996395 / Fold change vs veh, KIAA1704 /// LOC100996395 / RFU, ING1 / Fold change vs veh, ING1 / RFU, TRMT61B / Fold change vs veh, TRMT61B / RFU, FUBP3 / Fold change vs veh, FUBP3 / RFU, TP53 / Fold change vs veh, TP53 / RFU, TNKS2 / Fold change vs veh, TNKS2 / RFU, ZFP14 / Fold change vs veh, ZFP14 / RFU, ACTR2 / Fold change vs veh, ACTR2 / RFU, PPP3R1 / Fold change vs veh, PPP3R1 / RFU, PIK3R1 / Fold change vs veh, PIK3R1 / RFU, HNRNPA1 / Fold change vs veh, HNRNPA1 / RFU, RNF170 / Fold change vs veh, RNF170 / RFU, ZNF28 / Fold change vs veh, ZNF28 / RFU, RNGTT / Fold change vs veh, RNGTT / RFU, OGT / Fold change vs veh, OGT / RFU, BRD1 / Fold change vs veh, BRD1 / RFU, MARS / Fold change vs veh, MARS / RFU, ZNF655 / Fold change vs veh, ZNF655 / RFU, FAHD1 / Fold change vs veh, FAHD1 / RFU, BDP1 / Fold change vs veh, BDP1 / RFU, LRRCC1 / Fold change vs veh, LRRCC1 / RFU, ARID1A / Fold change vs veh, ARID1A / RFU, ZNF146 / Fold change vs veh, ZNF146 / RFU, ZNF330 / Fold change vs veh, ZNF330 / RFU, GPN3 / Fold change vs veh, GPN3 / RFU, C9orf123 / Fold change vs veh, C9orf123 / RFU, N4BP2L2 / Fold change vs veh, N4BP2L2 / RFU, ARFIP1 / Fold change vs veh, ARFIP1 / RFU, FAM179B / Fold change vs veh, FAM179B / RFU, BCL10 / Fold change vs veh, BCL10 / RFU, UHRF1BP1L / Fold change vs veh, UHRF1BP1L / RFU, BET1 / Fold change vs veh, BET1 / RFU, CNOT2 / Fold change vs veh, CNOT2 / RFU, ZNF268 / Fold change vs veh, ZNF268 / Fold change vs veh, ZNF507 / RFU, DGCR2 / Fold change vs veh, DGCR2 / RFU, WDSUB1 / Fold change vs veh, WDSUB1 / Fold change vs veh, HSP90B1 /// MIR3652 / RFU, ADSS / Fold change vs veh, ADSS / RFU, GK / Fold change vs veh, GK / RFU, ZNF148 / Fold change vs veh, ZNF148 / RFU, TAF9 / Fold change vs veh, TAF9 / RFU, SLC1A5 / Fold change vs veh, SLC1A5 / RFU, SLMO2 / Fold change vs veh, SLMO2 / RFU, ABCC4 / Fold change vs veh, ABCC4 / RFU, LOC101060439 /// RAP1B / Fold change vs veh, LOC101060439 /// RAP1B / RFU, RFX7 / Fold change vs veh, RFX7 / RFU, GTPBP10 / Fold change vs veh, GTPBP10 / RFU, CNEP1R1 / Fold change vs veh, CNEP1R1 / RFU, BIVM-ERCC5 /// ERCC5 / Fold change vs veh, BIVM-ERCC5 /// ERCC5 / RFU, ILF3 / Fold change vs veh, ILF3 / RFU 11762660_at / Fold change /veh 11762660_at / RFU VCAN (11757783_s_at) / Fold change /veh VCAN (11757783_s_at) / RFU DDX43 (11728927_at) / Fold change /veh DDX43 (11728927_at) / RFU KRT8 (11758188_x_at) / Fold change /veh KRT8 (11758188_x_at) / RFU NKD1 (11759106_at) / Fold change /veh NKD1 (11759106_at) / RFU SRD5A1 (11742802_a_at) / Fold change /veh SRD5A1 (11742802_a_at) / RFU TPSAB1 /// TPSB2 (11721975_s_at) / Fold change /veh TPSAB1 /// TPSB2 (11721975_s_at) / RFU GSTM3 (11746129_a_at) / Fold change /veh GSTM3 (11746129_a_at) / RFU IL23R (11737362_x_at) / Fold change /veh IL23R (11737362_x_at) / RFU TMEM51 (11727254_a_at) / Fold change /veh TMEM51 (11727254_a_at) / RFU PIWIL2 (11732686_x_at) / Fold change /veh PIWIL2 (11732686_x_at) / RFU ORM1 (11744905_x_at) / Fold change /veh ORM1 (11744905_x_at) / RFU CCDC152 (11743942_at) / Fold change /veh CCDC152 (11743942_at) / RFU ECM1 (11717891_a_at) / Fold change /veh ECM1 (11717891_a_at) / RFU IL23R (11748794_a_at) / Fold change /veh IL23R (11748794_a_at) / RFU TNFAIP8L3 (11732012_x_at) / Fold change /veh TNFAIP8L3 (11732012_x_at) / RFU MBOAT4 (11741988_at) / Fold change /veh MBOAT4 (11741988_at) / RFU 11764193_at / Fold change /veh 11764193_at / RFU TMEM53 (11763286_at) / Fold change /veh TMEM53 (11763286_at) / RFU MAGEB2 (11727129_at) / Fold change /veh MAGEB2 (11727129_at) / RFU TMEM200A (11744735_a_at) / Fold change /veh TMEM200A (11744735_a_at) / RFU CCDC152 (11751479_a_at) / Fold change /veh CCDC152 (11751479_a_at) / RFU FAM211A (11726209_a_at) / Fold change /veh FAM211A (11726209_a_at) / RFU RGS16 (11746705_a_at) / Fold change /veh RGS16 (11746705_a_at) / RFU VCAN (11755009_s_at) / Fold change /veh VCAN (11755009_s_at) / RFU RHOB (11743442_s_at) / Fold change /veh RHOB (11743442_s_at) / RFU RGS16 (11720943_a_at) / Fold change /veh RGS16 (11720943_a_at) / RFU RGS16 (11720944_at) / Fold change /veh RGS16 (11720944_at) / RFU, VPS4B / Fold change vs veh, VPS4B / RFU, CREB1 / Fold change vs veh, CREB1 / RFU, DNAJC13 / Fold change vs veh, DNAJC13 / RFU, GNAQ / Fold change vs veh, GNAQ / RFU, CDK5R1 / Fold change vs veh, CDK5R1 / RFU, ZRANB3 / Fold change vs veh, ZRANB3 / RFU, CUL4A / Fold change vs veh, CUL4A / RFU, CCNY / Fold change vs veh, CCNY / RFU, UFL1 / Fold change vs veh, UFL1 / RFU, COG3 / Fold change vs veh, COG3 / RFU, DIAPH2 / Fold change vs veh, DIAPH2 / RFU, SKA2 / Fold change vs veh, SKA2 / RFU, AFF3 / Fold change vs veh, AFF3 / RFU, LMF1 / Fold change vs veh, LMF1 / RFU, IPO11 / Fold change vs veh, IPO11 / RFU, DFFB / Fold change vs veh, DFFB / RFU, FOXP1 / Fold change vs veh, FOXP1 / RFU, CARD8 / Fold change vs veh, CARD8 / RFU, STRN3 / Fold change vs veh, STRN3 / RFU, ADK / Fold change vs veh, ADK / RFU, RASSF2 / Fold change vs veh, RASSF2 / RFU, WIPF1 / Fold change vs veh, WIPF1 / RFU, LARP1B / Fold change vs veh, LARP1B / RFU, RASA1 / Fold change vs veh, RASA1 / RFU, RB1 / Fold change vs veh, RB1 / RFU, PPFIA1 / Fold change vs veh, PPFIA1 / RFU, MAT2A / Fold change vs veh, MAT2A / RFU, CCT5 / Fold change vs veh, CCT5 / RFU, WDR92 / Fold change vs veh, WDR92 / RFU, CUX1 / Fold change vs veh, CUX1 / RFU, TTC7A / Fold change vs veh, TTC7A / RFU, TMEM135 / Fold change vs veh, TMEM135 / RFU, DEPTOR / Fold change vs veh, DEPTOR / RFU, CPM / Fold change vs veh, CPM / RFU, DNAJB6 / Fold change vs veh, DNAJB6 / RFU, CACNA2D3 / Fold change vs veh, CACNA2D3 / RFU, DTX4 / Fold change vs veh, DTX4 / RFU, TFCP2 / Fold change vs veh, TFCP2 / RFU, GMCL1 /// GMCL1P1 / Fold change vs veh, GMCL1 /// GMCL1P1 / RFU, AEBP2 / Fold change vs veh, AEBP2 / RFU, SNHG1 /// SNORD22 /// SNORD25 /// SNORD26 /// SNORD27 /// SNORD28 /// SNORD29 /// SNORD31 / Fold change vs veh, SNHG1 /// SNORD22 /// SNORD25 /// SNORD26 /// SNORD27 /// SNORD28 /// SNORD29 /// SNORD31 / Fold change (Aza/veh), C12orf56 (ProbeSet 11735607_a_at) / Fold change (ACY-1035/veh), C12orf56 (ProbeSet 11735607_a_at) / Fold change (Aza/veh), FGFR1OP (ProbeSet 11751329_s_at) / Fold change (ACY-1035/veh), FGFR1OP (ProbeSet 11751329_s_at) / Fold change (Aza/veh), VPS36 (ProbeSet 11739960_a_at) / Fold change (ACY-1035/veh), VPS36 (ProbeSet 11739960_a_at) / RFU SYPL1 (11715823_x_at) / Fold change /veh SYPL1 (11715823_x_at) / RFU IGFBP7 (11715501_s_at) / Fold change /veh IGFBP7 (11715501_s_at) / RFU REEP3 (11722064_at) / Fold change /veh REEP3 (11722064_at) / RFU IGLL1 (11728026_x_at) / Fold change /veh IGLL1 (11728026_x_at): dose or concentration left out as unconfirmed
Conditions: MV-4-11 cells, 48 hours

Nc1ccc(-c2cccs2)cc1NC(=O)c1ccc2c(c1)cc(C1CC1)n2CCN1CCOCC1 [ACY-1035]
Fold change /veh DDX43 (11728927_at): 1.03

— PMC5218480 (PLoS ONE, 2017)
